Results: publication PMC9607427, “Novel 7-Chloro-(4-thioalkylquinoline) Derivatives: Synthesis and Antiproliferative Activity through Inducing Apoptosis and DNA/RNA Damage” (Pharmaceuticals, 2022)

Experiments:
CCRF-CEM lymphoblasts = assay: Mitosis, pH3Ser10 antibody labeling, flow cytometry; format: cell-based, human; conditions: 24 h
Procedure: The effect of compounds on cell cycle distribution was determined to gain insights into the mechanism of its antiproliferative activity. […] For example, as compared with control, the percentage of cells in G2/M phases was increased by treatment with 5 × IC50 μM of compounds for 24 h (Table 4). […] As shown in (Table 4), there was a marked increase in the sub-G1 from 2.91 in untreated cells. 5-Bromo-2-deoxyuridine (BrDU) is incorporated into newly synthesized DNA, and 5-bromouridine (BrU) pulse labeling is therefore commonly used as a proliferation marker. Low BrDU and BrU incorporation into the DNA or RNA, respectively, of treated cells with all compounds at 5 × IC50 reflected inhibition of DNA and RNA synthesis, indicating irreversible apoptotic changes. The percentage of […] cells incorporating 5-bromouridine is proportional to the transcriptional activity of CCRF-CEM cells.
CCRF-CEM cells were seeded at a density of 1 × 10^6 cells per one mL in 6-well plates (TTP) and were cultivated with compounds at concentrations corresponding to 1 × or 5 × IC50 value. Together with the compounds-treated cells, a vehicle-treated sample was harvested at the same time point. After 24 h, the cells were washed with cold phosphate-buffered saline (PBS) and fixed in 70% ethanol added dropwise and stored overnight at −20 °C. Afterward, cells were washed in hypotonic citrate buffer, treated with RNase (50 µg mL^−1), and stained with propidium iodide. Flow cytometry using a 488 nm single beam laser (Becton Dickinson) was used for measurement. The cell cycle was analyzed by the software ModFitLT (Verity), and apoptosis was measured in a logarithmic model expressing the percentage of the particles with propidium content lower than cells in the G0/G1 phase (<G1) of the cell cycle. Half of the sample was used for pH3Ser10 antibody (Sigma) labeling and subsequent flow cytometry analysis of the cells in mitosis.

[1] = tested on: K562-TAX (chronic myeloid leukemia paclitaxel-resistant subline); assay: Cytotoxic MTS assay, K562-TAX; format: cell-based, human
In short: (§1)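 Growth inhibition over 72 h at 37 °C was quantified with MTS reagent (OD 490 nm), using four-fold compound dilutions added at seeding; the 50% inhibitory concentration was reported.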

U2OS (osteosarcoma) = assay: Cytotoxic MTS assay, U2OS; format: cell-based, human
In short: as §1

[2] = tested on: MRC-5 (noncancerous human lung fibroblasts); assay: Cytotoxic MTS assay, MRC-5; format: cell-based
In short: (§2)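 Cells seeded at 25,000–35,000 cells/mL were exposed to compounds (four-fold dilutions from DMSO) for 72 h at 37 °C, 5% CO2. Viability was read by MTS metabolic staining, OD at 490 nm after 1–4 h, and IC50 taken as the concentration giving 50% growth inhibition.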

[3] = tested on: BJ (noncancerous human fibroblasts from foreskin); assay: Cytotoxic MTS assay, BJ; format: cell-based
In short: as §2

[4] = tested on: K562 (chronic myeloid leukemia); assay: Cytotoxic MTS assay, K562; format: cell-based, human
In short: as §1

[5] = 5 × IC50 (second value of cell)

Q: Which “M (Mitosis Phospho-Histone3 (Ser10)), % of Total Cellular Populations” value (shortened to “M (Mitosis Phospho-Histone3 (Ser10)), %”) (CCRF-CEM lymphoblasts; 1 × IC50 (first value of cell)) does the source give for `COc1ccccc1C(=O)OCCS(=O)(=O)c1cc[n+]([O-])c2cc(Cl)ccc12` [Compound 68, 2-[(N-Oxide 7-chloroquinolin-4-yl)sulfonyl]ethyl-2-methoxybenzoate] here?
A: 1.73%

Q: And the “M (Mitosis Phospho-Histone3 (Ser10)), %” value (CCRF-CEM lymphoblasts; [5])?
A: 2.11%

Q: And the IC50 [1]?
A: 4.63 µM

Q: And the IC50 (U2OS (osteosarcoma))?
A: 6.9 µM

Q: What about the IC50 [2] of the same molecule?
A: 4.92 µM

Q: And the IC50 [3]?
A: 24.6 µM

Q: What about the IC50 [4] of the same molecule?
A: 4.72 µM

Q: `O=C(OCCS(=O)(=O)c1cc[n+]([O-])c2cc(Cl)ccc12)c1ccc(C(F)(F)F)cc1` [Compound 72, 2-[(N-Oxide 7-chloroquinolin-4-yl)sulfonyl]ethyl-4-(trifluoromethyl)benzoate] was tested. Which “M (Mitosis Phospho-Histone3 (Ser10)), %” value (CCRF-CEM lymphoblasts; 1 × IC50 (first value of cell)) did it give?
A: 1.61%

Q: What about the “M (Mitosis Phospho-Histone3 (Ser10)), %” value (CCRF-CEM lymphoblasts; [5]) of the same molecule?
A: 5.28%

Q: What about the IC50 [1] of the same molecule?
A: 6.06 µM

Q: What about the IC50 (U2OS (osteosarcoma)) of the same molecule?
A: 18.4 µM

Q: What about the IC50 [2] of the same molecule?
A: 24.4 µM

Q: What about the IC50 [3] of the same molecule?
A: 28.7 µM

Q: What about the IC50 [4] of the same molecule?
A: 3.02 µM

Q: `COc1ccc(C(=O)OCCS(=O)(=O)c2cc[n+]([O-])c3cc(Cl)ccc23)cc1[N+](=O)[O-]` [Compound 69, 2-[(N-Oxide 7-chloroquinolin-4-yl)sulfonyl]ethyl-4-methoxy-3-nitrobenzoate] was tested. Which “M (Mitosis Phospho-Histone3 (Ser10)), %” value (CCRF-CEM lymphoblasts; 1 × IC50 (first value of cell)) did it give?
A: 1.61%

Q: And the “M (Mitosis Phospho-Histone3 (Ser10)), %” value (CCRF-CEM lymphoblasts; [5])?
A: 1.6%

Q: And the IC50 [1]?
A: 7.32 µM

Q: What about the IC50 (U2OS (osteosarcoma)) of the same molecule?
A: 10.3 µM

Q: What about the IC50 [2] of the same molecule?
A: 8.41 µM

Q: And the IC50 [3]?
A: 27.2 µM

Q: And the IC50 [4]?
A: 6.49 µM

Q: With `COc1cc(OC)c(C(=O)OCCS(=O)(=O)c2cc[n+]([O-])c3cc(Cl)ccc23)cc1OC` [Compound 66, 2-[(N-Oxide 7-chloroquinolin-4-yl)sulfonyl]ethyl-2,4,5-trimethoxybenzoate] as the molecule, how does the “M (Mitosis Phospho-Histone3 (Ser10)), %” value (CCRF-CEM lymphoblasts; 1 × IC50 (first value of cell)) read?
A: 1.64%

Q: What about the “M (Mitosis Phospho-Histone3 (Ser10)), %” value (CCRF-CEM lymphoblasts; [5]) of the same molecule?
A: 2.29%

Q: And the IC50 [1]?
A: 6.25 µM

Q: What about the IC50 (U2OS (osteosarcoma)) of the same molecule?
A: 8.25 µM

Q: And the IC50 [2]?
A: 5.07 µM

Q: What about the IC50 [3] of the same molecule?
A: 21.2 µM

Q: And the IC50 [4]?
A: 5.3 µM

Q: Which results are given for `Cc1ccc([N+](=O)[O-])c(C(=O)OCCS(=O)(=O)c2cc[n+]([O-])c3cc(Cl)ccc23)c1` [Compound 70, 2-[(N-Oxide 7-chloroquinolin-4-yl)sulfonyl]ethyl-5-methyl-2-nitrobenzoate]?
A: M (Mitosis Phospho-Histone3 (Ser10)), % of Total Cellular Populations (CCRF-CEM lymphoblasts; 1 × IC50 (first value of cell)): 1.57%; M (Mitosis Phospho-Histone3 (Ser10)), % of Total Cellular Populations (CCRF-CEM lymphoblasts; [5]): 1.08%; IC50 [1]: 6.89 µM; IC50 (U2OS (osteosarcoma)): 9.92 µM; IC50 [2]: 22.9 µM; IC50 [3]: 25.7 µM; IC50 [4]: 6.1 µM

Q: Which “M (Mitosis Phospho-Histone3 (Ser10)), %” value (CCRF-CEM lymphoblasts; 1 × IC50 (first value of cell)) does the source give for `COc1ccc(OC)c(C(=O)OCCS(=O)(=O)c2cc[n+]([O-])c3cc(Cl)ccc23)c1` [Compound 65, 2-[(N-Oxide 7-chloroquinolin-4-yl)sulfonyl]ethyl-2,5-dimethoxybenzoate] here?
A: 1%

Q: And the “M (Mitosis Phospho-Histone3 (Ser10)), %” value (CCRF-CEM lymphoblasts; [5])?
A: 1.66%

Q: And the IC50 [1]?
A: 6.65 µM

Q: What about the IC50 (U2OS (osteosarcoma)) of the same molecule?
A: 7.67 µM

Q: What about the IC50 [2] of the same molecule?
A: 4.95 µM

Q: What about the IC50 [3] of the same molecule?
A: 22.2 µM

Q: What about the IC50 [4] of the same molecule?
A: 5.85 µM

Q: Which results are given for `COc1ccc(C(=O)OCCS(=O)(=O)c2cc[n+]([O-])c3cc(Cl)ccc23)cc1` [Compound 63, 2-[(N-Oxide 7-chloroquinolin-4-yl)sulfonyl]ethyl-4-methoxybenzoate]?
A: M (Mitosis Phospho-Histone3 (Ser10)), % of Total Cellular Populations (CCRF-CEM lymphoblasts; 1 × IC50 (first value of cell)): 1.66%; M (Mitosis Phospho-Histone3 (Ser10)), % of Total Cellular Populations (CCRF-CEM lymphoblasts; [5]): 1.53%; IC50 [1]: 4.71 µM; IC50 (U2OS (osteosarcoma)): 5.71 µM; IC50 [2]: 4 µM; IC50 [3]: 23.9 µM; IC50 [4]: 5.38 µM
